Data taken from ChEMBL document CHEMBL1201862, “PubChem BioAssay data set” (2004).
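Each compound was tested at five concentrations against cells in 96-well plates for 48 hours. GI50 is the concentration that inhibits growth by half.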 The source made the active and inactive calls. Cut-off read from the data, not from the text of the source: active = GI50 up to about 1.1 µM and inactive = higher.

Columns and labels:
Assay in all cases: NCI tumour cell line growth inhibition, 48 h
ACHN = tested on: ACHN
CAKI-1 = tested on: CAKI-1
A549 = tested on: A549
SK-OV-3 = tested on: SK-OV-3
PC-3 = tested on: PC-3
SNB-75 = tested on: SNB-75
U-251 = tested on: U-251
SF-268 = tested on: SF-268
UO-31 = tested on: UO-31
HCC 2998 = tested on: HCC 2998
HCT-116 = tested on: HCT-116
NCI-H226 = tested on: NCI-H226
RPMI-8226 = tested on: RPMI-8226
Hs-578T = tested on: Hs-578T
EKVX = tested on: EKVX
IGROV-1 = tested on: IGROV-1
NCI-H522 = tested on: NCI-H522
MCF7 = tested on: MCF7

Measured: GI50

OC1(c2ccc(-c3ccccc3)cc2)c2ccccc2C2=NCCN21 (stereo unspecified)
inactive: ACHN 20.6 µM | CAKI-1 50.6 µM | A549 84.9 µM | SK-OV-3 86.3 µM | PC-3 11.9 µM | SNB-75 19.3 µM | U-251 37.7 µM | SF-268 29.6 µM | UO-31 30.6 µM | HCC 2998 19.1 µM | HCT-116 30.3 µM | NCI-H226 18.3 µM | RPMI-8226 29 µM | Hs-578T 22.4 µM

C1CSCCSCCS1
inactive: EKVX > 100 µM | A549 > 100 µM | SK-OV-3 > 100 µM | PC-3 > 100 µM | SNB-75 > 100 µM | IGROV-1 > 100 µM | NCI-H522 > 100 µM | U-251 > 100 µM | SF-268 > 100 µM | UO-31 > 100 µM | HCC 2998 > 100 µM | HCT-116 > 100 µM | RPMI-8226 > 100 µM | MCF7 > 100 µM

O=C(NCc1cccc2ccccc12)N/N=C\c1ccc(Cl)cc1
inactive: ACHN > 100 µM | EKVX 36.1 µM | CAKI-1 43.2 µM | PC-3 > 100 µM | SNB-75 62.8 µM | IGROV-1 > 100 µM | NCI-H522 36.6 µM | U-251 > 100 µM | SF-268 93.8 µM | UO-31 > 100 µM | HCC 2998 57.7 µM | HCT-116 > 100 µM | NCI-H226 > 100 µM | RPMI-8226 77.1 µM | MCF7 43.3 µM

COc1c2cc(C(C)(C)C)cc1CSCc1cc(C(C)(C)C)cc(c1OC)CCCCC2
inactive: ACHN 31.8 µM | A549 37.7 µM | SK-OV-3 > 50 µM | PC-3 22.4 µM | SNB-75 > 50 µM | IGROV-1 21.4 µM | U-251 27 µM | SF-268 46.2 µM | UO-31 20.7 µM | HCC 2998 29.6 µM | HCT-116 27.4 µM | NCI-H226 20.5 µM | MCF7 > 50 µM | Hs-578T > 50 µM

O=[N+]([O-])c1ccc2nc3n(c2c1)C(c1c(F)cccc1F)SC3 (stereo unspecified)
inactive: ACHN > 100 µM | EKVX > 100 µM | A549 > 10 µM | SK-OV-3 > 100 µM | PC-3 > 100 µM | IGROV-1 > 100 µM | U-251 > 100 µM | HCT-116 > 100 µM | NCI-H226 > 100 µM | RPMI-8226 > 10 µM | MCF7 > 100 µM | Hs-578T > 100 µM

Cc1c(C)c(C)c(-n2[nH]c(=O)n(C)c2=O)c(C)c1C
inactive: ACHN > 100 µM | EKVX > 100 µM | CAKI-1 > 100 µM | A549 > 100 µM | SK-OV-3 > 100 µM | PC-3 > 100 µM | SNB-75 > 100 µM | IGROV-1 > 100 µM | U-251 > 100 µM | SF-268 > 100 µM | UO-31 52.5 µM | HCT-116 > 100 µM | NCI-H226 > 100 µM | RPMI-8226 > 100 µM | MCF7 > 100 µM | Hs-578T > 100 µM

C#CCNC(CCCNC(=N)N)C(=O)O (stereo unspecified)
inactive: ACHN > 100 µM | EKVX > 100 µM | CAKI-1 > 100 µM | A549 > 100 µM | SK-OV-3 > 100 µM | PC-3 > 100 µM | SNB-75 > 100 µM | IGROV-1 > 100 µM | NCI-H522 > 100 µM | U-251 > 100 µM | SF-268 > 100 µM | UO-31 > 100 µM | HCC 2998 > 100 µM | HCT-116 > 100 µM | NCI-H226 > 100 µM | RPMI-8226 > 100 µM | Hs-578T > 100 µM

O=c1oc2ccc3ccccc3c2cc1-c1nc2ccccc2s1
inactive: ACHN > 100 µM | EKVX > 100 µM | CAKI-1 > 100 µM | A549 > 23.1 µM | SK-OV-3 > 100 µM | PC-3 > 100 µM | SNB-75 > 100 µM | IGROV-1 > 100 µM | NCI-H522 > 100 µM | U-251 > 100 µM | SF-268 > 100 µM | UO-31 > 100 µM | HCC 2998 > 100 µM | HCT-116 > 100 µM | NCI-H226 > 100 µM | Hs-578T > 100 µM

COc1ccc(C2SC(=N)Nc3c2c(C)nn3C(=O)c2ccccc2O)cc1OC (stereo unspecified)
inactive: ACHN 3.91 µM | EKVX > 10 µM | CAKI-1 6.59 µM | A549 3.4 µM | SK-OV-3 2.54 µM | PC-3 4.5 µM | SNB-75 3.09 µM | IGROV-1 4.71 µM | U-251 4.5 µM | SF-268 5.32 µM | UO-31 4.61 µM | HCT-116 2.37 µM | NCI-H226 4.32 µM | RPMI-8226 6.28 µM | MCF7 3.3 µM | Hs-578T 1.56 µM

C=CCn1c2ccccc2[n+]2cc([N+](=O)[O-])ccc12
inactive: ACHN 33.1 µM | EKVX 37 µM | CAKI-1 32.1 µM | A549 > 100 µM | SK-OV-3 47.2 µM | PC-3 48.8 µM | SNB-75 33.1 µM | IGROV-1 21.3 µM | NCI-H522 16 µM | U-251 31.9 µM | UO-31 48.4 µM | HCC 2998 54.8 µM | HCT-116 27.2 µM | NCI-H226 25.9 µM | MCF7 26.3 µM

CC(=O)OC1CC2C(=O)C(=O)C1(C)C2(C)C (stereo unspecified)
inactive: ACHN > 100 µM | EKVX > 100 µM | A549 > 100 µM | SK-OV-3 > 100 µM | PC-3 > 100 µM | SNB-75 > 100 µM | IGROV-1 > 100 µM | U-251 > 100 µM | SF-268 > 100 µM | UO-31 > 100 µM | HCC 2998 > 100 µM | HCT-116 > 100 µM | NCI-H226 > 100 µM | RPMI-8226 > 100 µM | MCF7 > 100 µM

CCCc1cc2c(cc1O)CC[C@@H]1[C@@H]2CC[C@]2(C)[C@@H](O)CC[C@@H]12
inactive: ACHN 12.9 µM | EKVX 12.7 µM | CAKI-1 11.3 µM | A549 10.6 µM | SK-OV-3 14.6 µM | PC-3 13.4 µM | SNB-75 13.5 µM | IGROV-1 15.2 µM | NCI-H522 8.32 µM | U-251 6.62 µM | SF-268 13.2 µM | UO-31 12 µM | HCC 2998 16.5 µM | NCI-H226 13.4 µM | Hs-578T 10.1 µM

CC(=O)CC(=O)Nn1c(-c2cccs2)nc2ccc(I)cc2c1=O
inactive: ACHN > 57 µM | EKVX > 37.7 µM | CAKI-1 > 47.3 µM | A549 > 64.3 µM | SK-OV-3 > 66.7 µM | PC-3 > 51.5 µM | SNB-75 43.5 µM | IGROV-1 > 46.7 µM | NCI-H522 > 49.5 µM | U-251 > 56 µM | SF-268 > 47.3 µM | UO-31 > 46.9 µM | HCC 2998 > 39.8 µM | HCT-116 > 60.1 µM | NCI-H226 > 42.3 µM | RPMI-8226 > 57.9 µM | MCF7 > 54.2 µM
